Measurements from patent US20240294569A1, “MODULATORS OF SORTILIN ACTIVITY” (Insusense ApS, priority 2021, published 2024).
pIC50: −log10 of the molar value. Peptide text beside a SMILES is read from it.

Molecular target: T1, hSortilin (Homo sapiens, UniProt Q99523)
T1 sequence (Q99523 78-831): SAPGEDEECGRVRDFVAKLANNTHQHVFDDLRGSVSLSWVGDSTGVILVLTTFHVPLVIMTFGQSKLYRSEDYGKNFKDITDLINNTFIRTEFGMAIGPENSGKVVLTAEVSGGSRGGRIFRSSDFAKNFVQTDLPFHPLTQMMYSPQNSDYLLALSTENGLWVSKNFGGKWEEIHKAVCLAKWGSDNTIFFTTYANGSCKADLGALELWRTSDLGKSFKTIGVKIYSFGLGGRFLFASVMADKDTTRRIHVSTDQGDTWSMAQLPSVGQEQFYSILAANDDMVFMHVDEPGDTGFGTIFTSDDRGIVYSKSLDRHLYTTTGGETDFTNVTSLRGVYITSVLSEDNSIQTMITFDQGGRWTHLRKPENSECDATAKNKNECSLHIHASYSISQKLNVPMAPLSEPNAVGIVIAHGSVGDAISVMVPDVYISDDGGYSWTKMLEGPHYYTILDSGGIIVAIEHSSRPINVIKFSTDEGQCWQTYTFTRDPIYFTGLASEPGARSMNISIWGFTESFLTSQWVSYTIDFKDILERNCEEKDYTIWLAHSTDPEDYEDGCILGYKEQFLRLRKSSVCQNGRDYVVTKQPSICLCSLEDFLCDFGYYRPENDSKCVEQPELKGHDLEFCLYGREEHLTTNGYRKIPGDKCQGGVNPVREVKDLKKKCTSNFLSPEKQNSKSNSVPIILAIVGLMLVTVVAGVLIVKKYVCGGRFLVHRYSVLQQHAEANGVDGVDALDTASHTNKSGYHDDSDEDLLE
Assay: Neurotensin scintillation proximity assay (displacement of [3H]-neurotensin binding)
Conditions: displacement of 5 nM [3H]-neurotensin from 150 nM 6his-Sortilin; average of at least 2 determinations; read-out: IC50 [3H]Neurotensin SPA
Method: The data of exemplified compounds of the invention tested in a Neurotensin (NTS) scintillation proximity assay (SPA). NTS, which is a 13 amino acid neuropeptide, is a sortilin ligand. The IC50 is a measure of the amount of the compound required to inhibit the binding of NTS to sortilin by 50%.
Compound affinity was determined by measuring the displacement of [^3H]-neurotensin binding to hSortilin in SPA format. Total volume of 40 μl in 50 mM HEPES pH 7.4 assay buffer containing 100 mM NaCl, 2.0 mM CaCl2, 0.1% BSA and 0.1% Tween-20. Compound pre-incubation for 30 minutes at room temperature with 150 nM of 6his-Sortilin before 5 nM [3H]-Neurotensin and Ni chelate imaging beads (Perkin Elmer) were added, after 6 hours the plate was read on a ViewLux with 360 s exposure time. Dose-response evaluation of compounds was performed with 8 concentrations of drugs (covering 3 decades). IC50 values were calculated by nonlinear regression using the sigmoid concentration-response (variable slope) using CDD Vault software. All values reported are average of at least 2 determinations.

SMILES	pIC50
Cn1cncc1C[C@H](NC(=O)[C@H](Cc1ccc(O)cc1)NC(=O)[C@@H]1CCCN1)C(=O)N[C@@H](CCC(C)(C)C)C(=O)O [Example 32, (S)-2-((S)-2-((S)-3-(4-Hydroxyphenyl)-2-((S)-pyrrolidine-2-carboxamido)propan amido)-3-(1-methyl-1H-imidazol-5-yl)propanamido)-5,5-dimethylhexanoic acid.di-formic acid] (HELM PEPTIDE1{P.Y.[Cn1cncc1C[C@H](N[*:1])C(=O)[*:2]].[CC(C)(C)CC[C@H](N[*:1])C(=O)O]}$$$$V2.0)	7.00
CC[C@H](C)[C@H](NC(=O)[C@H](Cc1ccc(O)cc1)NC(C)=O)C(=O)N[C@@H](CCC(F)(F)F)C(=O)O [Example 3, (S)-2-((2S,3S)-2-((S)-2-Acetamido-3-(4-hydroxyphenyl)propanamido)-3-methylpentanamido)-5,5,5-trifluoropentanoic acid]	5.95
CC[C@H](C)[C@H](NC(=O)[C@H](Cc1ccc(O)cc1)NC(=O)[C@@H]1CNCCN1)C(=O)N[C@@H](CCC(C)(C)C)C(=O)O [Example 19, (S)-2-((2S,3S)-2-((S)-3-(4-Hydroxyphenyl)-2-((S)-piperazine-2-carboxamido)propan amido)-3-methylpentanamido)-5,5-dimethylhexanoic acid] (HELM PEPTIDE1{[O=C([C@@H]1CNCCN1)[*:2]].Y.I.[CC(C)(C)CC[C@H](N[*:1])C(=O)O]}$$$$V2.0)	7.00
CC[C@H](C)[C@H](NC(=O)[C@H](Cc1ccc(O)cc1)NC(=O)[C@H]1CCNC1)C(=O)N[C@@H](CCC(C)(C)C)C(=O)O [Example 20, (S)-2-((2S,3S)-2-((S)-3-(4-Hydroxyphenyl)-2-((S)-pyrrolidine-3-carboxamido)propan amido)-3-methylpentanamido)-5,5-dimethylhexanoic acid]	6.82
CC[C@H](C)[C@H](NC(=O)[C@H](Cc1ccc(O)cc1)NC(=O)[C@H]1COCCN1)C(=O)N[C@@H](CCC(C)(C)C)C(=O)O [Example 23, (S)-2-((2S,3S)-2-((S)-3-(4-Hydroxyphenyl)-2-((R)-morpholine-3-carboxamido)propan amido)-3-methylpentanamido)-5,5-dimethylhexanoic acid]	7.00
CC[C@H](C)[C@H](NC(=O)[C@H](Cc1ccc(O)cc1)NC(=O)[C@@H]1CCNC1)C(=O)N[C@@H](CCC(C)(C)C)C(=O)O [Example 21, (S)-2-((2S,3S)-2-((S)-3-(4-Hydroxyphenyl)-2-((R)-pyrrolidine-3-carboxamido)propan amido)-3-methylpentanamido)-5,5-dimethylhexanoic acid]	6.74
CC(C)(C)CC[C@H](NC(=O)[C@H](CN1CCOCC1)NC(=O)[C@H](Cc1ccc(O)cc1)NC(=O)[C@@H]1CCCN1)C(=O)O [Example 13, (S)-2-((S)-2-((S)-3-(4-Hydroxyphenyl)-2-((S)-pyrrolidine-2-carboxamido)propan amido)-3-morpholinopropan-amido)-5,5-dimethylhexanoic acid] (HELM PEPTIDE1{P.Y.[O=C([C@H](CN1CCOCC1)N[*:1])[*:2]].[CC(C)(C)CC[C@H](N[*:1])C(=O)O]}$$$$V2.0)	6.80
CC[C@H](C)[C@H](NC(=O)[C@H](Cc1ccc(O)cc1)NC(=O)[C@@H]1CCCO1)C(=O)N[C@@H](CCC(F)(F)F)C(=O)O [Example 1, (S)-5,5,5-Trifluoro-2-((2S,3S)-2-((S)-3-(4-hydroxyphenyl)-2-((S)-tetrahydrofuran-2-carboxamido)propanamido)-3-methylpentanamido)pentanoic acid]	5.50
CC[C@H](C)[C@H](NC(=O)[C@H](Cc1ccc(O)cc1)NC(=O)[C@H]1CN(C(C)=O)CCO1)C(=O)N[C@@H](CCC(C)(C)C)C(=O)O [Example 25, (S)-2-((2S,3S)-2-((S)-2-((R)-4-Acetylmorpholine-2-carboxamido)-3-(4-hydroxyphenyl)propanamido)-3-methylpentanamido)-5,5-dimethylhexanoic acid]	6.85
CC(C)(C)CC[C@H](NC(=O)[C@H](Cc1ccccn1)NC(=O)[C@H](Cc1ccc(O)cc1)NC(=O)[C@@H]1CCCN1)C(=O)O [Example 5, (S)-2-((S)-2-((S)-3-(4-Hydroxyphenyl)-2-((S)-pyrrolidine-2-carboxamido)propanamido)-3-(pyridin-2-yl)propanamido)-5,5-dimethylhexanoic acid] (HELM PEPTIDE1{P.Y.[O=C([C@H](Cc1ccccn1)N[*:1])[*:2]].[CC(C)(C)CC[C@H](N[*:1])C(=O)O]}$$$$V2.0)	6.57
CC(C)(C)CC[C@H](NC(=O)[C@H](Cc1ccsc1)NC(=O)[C@H](Cc1ccc(O)cc1)NC(=O)[C@@H]1CCCN1)C(=O)O [Example 9, (S)-2-((S)-2-((S)-3-(4-Hydroxyphenyl)-2-((S)-pyrrolidine-2-carboxamido)propan amido)-3-(thiophen-3-yl)propanamido)-5,5-dimethylhexanoic acid] (HELM PEPTIDE1{P.Y.[O=C([C@H](Cc1ccsc1)N[*:1])[*:2]].[CC(C)(C)CC[C@H](N[*:1])C(=O)O]}$$$$V2.0)	6.85

Molecules with a higher pIC50, results first:

pIC50	SMILES
7.22	CC(C)(C)CC[C@H](NC(=O)[C@H](Cc1c[nH]c2ccccc12)NC(=O)[C@H](Cc1ccc(O)cc1)NC(=O)[C@@H]1CCCN1)C(=O)O [Example 14, (S)-2-((S)-2-((S)-3-(4-Hydroxyphenyl)-2-((S)-pyrrolidine-2-carboxamido)propan amido)-3-(1H-indol-3-yl)propanamido)-5,5-dimethylhexanoic acid] (HELM PEPTIDE1{P.Y.W.[CC(C)(C)CC[C@H](N[*:1])C(=O)O]}$$$$V2.0)
7.15	CC[C@H](C)[C@H](NC(=O)[C@H](C)NC(=O)[C@@H]1CCCN1)C(=O)N[C@@H](CCC(C)(C)C)C(=O)O [Example 17, (2S)-5,5-Dimethyl-2-((3S)-3-methyl-2-((S)-2-((S)-pyrrolidine-2-carboxamido)propan amido)pentanamido) hexanoic acid] (HELM PEPTIDE1{P.A.I.[CC(C)(C)CC[C@H](N[*:1])C(=O)O]}$$$$V2.0)
7.10	CC[C@H](C)[C@H](NC(=O)CNC(=O)[C@@H]1CCCN1)C(=O)N[C@@H](CCC(C)(C)C)C(=O)O [Example 16, (2S)-5,5-Dimethyl-2-((3S)-3-methyl-2-(2-((S)-pyrrolidine-2-carboxamido)acetamido)pentanamido) hexanoic acid] (HELM PEPTIDE1{P.G.I.[CC(C)(C)CC[C@H](N[*:1])C(=O)O]}$$$$V2.0)
7.05	CC(C)(C)CC[C@H](NC(=O)[C@H](Cc1cccnc1)NC(=O)[C@H](Cc1ccc(O)cc1)NC(=O)[C@@H]1CCCN1)C(=O)O [Example 6, (S)-2-((S)-2-((S)-3-(4-Hydroxyphenyl)-2-((S)-pyrrolidine-2-carboxamido)propan amido)-3-(pyridin-3-yl)propanamido)-5,5-dimethylhexanoic acid] (HELM PEPTIDE1{P.Y.[O=C([C@H](Cc1cccnc1)N[*:1])[*:2]].[CC(C)(C)CC[C@H](N[*:1])C(=O)O]}$$$$V2.0)
7.15	CC(C)(C)CC[C@H](NC(=O)[C@H](Cc1cscn1)NC(=O)[C@H](Cc1ccc(O)cc1)NC(=O)[C@@H]1CCCN1)C(=O)O [Example 12, (S)-2-((S)-2-((S)-3-(4-Hydroxyphenyl)-2-((S)-pyrrolidine-2-carboxamido)propan amido)-3-(thiazol-4-yl)propanamido)-5,5-dimethylhexanoic acid] (HELM PEPTIDE1{P.Y.[O=C([C@H](Cc1cscn1)N[*:1])[*:2]].[CC(C)(C)CC[C@H](N[*:1])C(=O)O]}$$$$V2.0)
7.05	CC(C)(C)CC[C@H](NC(=O)[C@H](Cc1cscn1)NC(=O)[C@H](CC(N)=O)NC(=O)[C@@H]1CCCN1)C(=O)O [Example 10, (S)-2-((S)-2-((S)-4-Amino-4-oxo-2-((S)-pyrrolidine-2-carboxamido)butan-amido)-3-(thiazol-4-yl)propanamido)-5,5-dimethylhexanoic acid] (HELM PEPTIDE1{P.N.[O=C([C@H](Cc1cscn1)N[*:1])[*:2]].[CC(C)(C)CC[C@H](N[*:1])C(=O)O]}$$$$V2.0)
7.05	CC[C@H](C)[C@H](NC(=O)[C@H](Cc1ccc(O)cc1)NC(=O)[C@H]1CNCCO1)C(=O)N[C@@H](CCC(C)(C)C)C(=O)O [Example 30, (S)-2-((2S,3S)-2-((S)-3-(4-Hydroxyphenyl)-2-((R)-morpholine-2-carboxamido)propan amido)-3-methylpentanamido)-5,5-dimethylhexanoic acid]
